# Measured values published in patent US20110009403A1, “2-MORPHOLINYLPURINES AS INHIBITORS OF PI3K” (S*BIO Pte Ltd., priority 2007, published 2011).
# Columns and labels:
# [1] = system: human breast cancer cell lines; details: six of eight cancer lines inhibited; cited from earlier work
# [2] = target: T1, PI3K p110α/p85 (Homo sapiens, UniProt P42336); experiment: PI3K assay ([γ33P]ATP, PtdIns/PtdSer coated plates); format: biochemical; details: 2 μM ATP, 1 hour at RT; read-out: IC50 (PI3Kα)
# T1 construct: made in house
# T1 sequence (P42336 whole entry): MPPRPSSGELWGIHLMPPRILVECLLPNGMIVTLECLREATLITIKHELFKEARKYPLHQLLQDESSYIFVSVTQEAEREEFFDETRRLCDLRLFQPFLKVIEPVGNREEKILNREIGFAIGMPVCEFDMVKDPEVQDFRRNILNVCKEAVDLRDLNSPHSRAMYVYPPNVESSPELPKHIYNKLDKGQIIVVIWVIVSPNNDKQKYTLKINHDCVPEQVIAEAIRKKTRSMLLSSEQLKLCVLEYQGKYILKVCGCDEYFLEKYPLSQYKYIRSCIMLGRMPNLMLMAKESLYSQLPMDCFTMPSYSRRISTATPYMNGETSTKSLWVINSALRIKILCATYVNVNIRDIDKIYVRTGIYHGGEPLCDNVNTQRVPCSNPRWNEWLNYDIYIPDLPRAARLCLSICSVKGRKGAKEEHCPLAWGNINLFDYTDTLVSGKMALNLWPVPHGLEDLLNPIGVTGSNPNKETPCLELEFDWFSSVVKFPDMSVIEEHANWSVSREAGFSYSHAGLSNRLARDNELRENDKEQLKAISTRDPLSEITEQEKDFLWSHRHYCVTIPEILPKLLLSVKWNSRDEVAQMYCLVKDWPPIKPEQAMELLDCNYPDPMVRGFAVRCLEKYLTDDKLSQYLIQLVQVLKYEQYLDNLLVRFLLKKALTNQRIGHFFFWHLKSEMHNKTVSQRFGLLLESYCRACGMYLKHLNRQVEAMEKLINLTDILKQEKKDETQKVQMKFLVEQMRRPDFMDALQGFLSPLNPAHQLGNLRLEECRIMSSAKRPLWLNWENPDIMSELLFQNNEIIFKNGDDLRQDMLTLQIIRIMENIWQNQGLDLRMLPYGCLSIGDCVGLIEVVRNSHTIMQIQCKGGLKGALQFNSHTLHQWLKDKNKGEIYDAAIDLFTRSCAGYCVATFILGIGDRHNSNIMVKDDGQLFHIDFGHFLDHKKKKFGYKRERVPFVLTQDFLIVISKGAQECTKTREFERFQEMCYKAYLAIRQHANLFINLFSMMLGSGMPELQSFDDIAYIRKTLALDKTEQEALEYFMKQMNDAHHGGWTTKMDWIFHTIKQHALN
# T1 sequence (P27986 whole entry partner): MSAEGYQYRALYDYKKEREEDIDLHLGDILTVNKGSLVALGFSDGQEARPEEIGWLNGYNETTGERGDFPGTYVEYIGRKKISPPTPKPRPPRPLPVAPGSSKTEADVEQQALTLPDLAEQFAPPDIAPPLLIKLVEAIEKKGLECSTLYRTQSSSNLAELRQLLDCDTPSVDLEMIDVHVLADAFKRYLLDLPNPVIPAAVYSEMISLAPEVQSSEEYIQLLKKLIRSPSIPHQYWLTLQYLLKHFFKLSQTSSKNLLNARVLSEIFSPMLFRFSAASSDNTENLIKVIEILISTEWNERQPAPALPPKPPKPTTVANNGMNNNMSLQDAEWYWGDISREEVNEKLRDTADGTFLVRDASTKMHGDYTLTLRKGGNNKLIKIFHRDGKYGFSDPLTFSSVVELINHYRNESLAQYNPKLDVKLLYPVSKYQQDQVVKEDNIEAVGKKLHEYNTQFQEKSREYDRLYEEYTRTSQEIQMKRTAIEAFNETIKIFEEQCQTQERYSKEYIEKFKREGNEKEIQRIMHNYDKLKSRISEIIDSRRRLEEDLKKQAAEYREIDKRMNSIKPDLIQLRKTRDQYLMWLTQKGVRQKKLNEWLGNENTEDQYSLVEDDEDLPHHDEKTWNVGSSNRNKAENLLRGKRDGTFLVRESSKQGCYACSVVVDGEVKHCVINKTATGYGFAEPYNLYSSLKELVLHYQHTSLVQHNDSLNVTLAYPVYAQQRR
# Description: Recombinant PI3K p110α/p85 was prepared in-house. Phosphatidylinositol (PtdIns), phosphotidylserine (PtdSer) and all other unspecified chemicals were purchased from Sigma-Aldrich. [γ^33P]ATP and Optiphase scintillant were obtained from Perkin Elmer.
# Assays were performed in a final assay volume of 25 μL in 384-well Maxisorp plates (Nunc). Compounds were tested at 8 concentrations in 3-fold serial dilution, generally starting from 10 μM. Maxisorp plates were coated with 20 μL/well of a 1:1 mixture of PtdIns and PtdSer [0.1 mg/mL each dissolved in chloroform:ethanol (3:7)] and left overnight in a fume hood at room temperature (RT) to dry.
# The enzyme reaction was created by pipetting 5 μL/well of compound (in 2.5% DMSO), 10 μL/well of enzyme (0.5 μg/mL p110α+1 μg/mL p85), and 10 μL/well of 5 μM ATP with 5 μCi/mL [γ^33P]ATP in assay buffer (final concentrations: 0.2 μg/mL p110α, 2 μM ATP, […] [γ^33P]ATP in 1× assay buffer: 100 mM Tris-HCl pH 7.0, 200 mM NaCl, 8 mM MgCl2). The reaction was incubated for 1 hour at RT and terminated with 30 μL/well of 50 mM EDTA solution. The plate was then washed twice with TBS, dried, and added with 30 μL/well of scintillant before it was counted in a MicroBeta Trilux.
# [3] = target: mTOR (Homo sapiens, UniProt P42345); experiment: mTOR assay (phosphorylation of 4eBP1, [γ33P]-ATP filter plate); format: biochemical; details: 10 μM ATP, 1 hour at room temperature
# Chain of mTOR (P42345 1382-2549 limits assumed): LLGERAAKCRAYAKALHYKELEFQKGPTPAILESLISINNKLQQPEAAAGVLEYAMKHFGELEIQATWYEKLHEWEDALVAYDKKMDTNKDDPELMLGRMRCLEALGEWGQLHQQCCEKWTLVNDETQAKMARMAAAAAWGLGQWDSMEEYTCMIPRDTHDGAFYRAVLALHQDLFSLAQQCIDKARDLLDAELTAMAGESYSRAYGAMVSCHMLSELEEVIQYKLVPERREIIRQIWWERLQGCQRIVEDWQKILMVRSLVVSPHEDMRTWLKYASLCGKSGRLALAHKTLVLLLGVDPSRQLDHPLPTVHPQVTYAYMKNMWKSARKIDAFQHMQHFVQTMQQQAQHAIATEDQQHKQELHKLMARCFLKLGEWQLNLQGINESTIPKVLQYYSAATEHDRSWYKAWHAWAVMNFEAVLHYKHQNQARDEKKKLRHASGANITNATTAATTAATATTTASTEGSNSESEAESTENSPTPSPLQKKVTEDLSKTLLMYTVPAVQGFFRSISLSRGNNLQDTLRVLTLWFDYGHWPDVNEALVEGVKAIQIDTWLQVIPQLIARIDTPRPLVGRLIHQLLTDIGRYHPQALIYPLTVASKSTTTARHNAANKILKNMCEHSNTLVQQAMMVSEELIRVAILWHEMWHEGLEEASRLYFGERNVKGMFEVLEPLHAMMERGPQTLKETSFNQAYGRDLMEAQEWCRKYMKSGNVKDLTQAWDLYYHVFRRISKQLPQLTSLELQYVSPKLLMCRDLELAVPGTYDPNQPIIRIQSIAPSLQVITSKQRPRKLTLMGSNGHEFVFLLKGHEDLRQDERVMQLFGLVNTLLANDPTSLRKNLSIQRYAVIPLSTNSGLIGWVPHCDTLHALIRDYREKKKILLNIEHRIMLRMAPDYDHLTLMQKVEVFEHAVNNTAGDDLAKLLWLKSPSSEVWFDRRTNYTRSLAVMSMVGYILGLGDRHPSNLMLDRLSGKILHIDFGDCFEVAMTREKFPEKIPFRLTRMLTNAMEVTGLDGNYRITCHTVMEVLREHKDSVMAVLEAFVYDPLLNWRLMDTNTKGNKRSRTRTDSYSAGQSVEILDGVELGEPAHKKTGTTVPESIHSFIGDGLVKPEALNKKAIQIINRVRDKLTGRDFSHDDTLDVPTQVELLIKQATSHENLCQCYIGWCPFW
# Description: Truncated mTOR kinase and His-tagged 4eBP1 were produced in-house. [γ^33P]-ATP was purchased from Amersham (GE Healthcare). All chemicals, unless otherwise stated, were from Sigma-Aldrich.
# Phosphorylation assays were initially performed in a final volume of 20 μL in 384-well polypropylene plate (Greiner). Compounds were typically tested over the range from 100 μM to 0.006 μM, in 8 step dilutions, in duplicate. 10 μL/well of 2× Enzyme-Substrate solution (1.5 μg/mL mTOR, 40 μg/mL 4eBP1 in 1× assay buffer: 10 mM Hepes pH 7.5, 50 mM NaCl and 10 mM MnCl2) were first added to the sample plate containing 1 μL/well of test compound in neat DMSO. The reaction was initiated by adding 10 μL/well of 20 μM ATP solution (final assay concentration 10 μM ATP and 0.4 μCi/well of [γ^33P]-ATP). After 1 hour incubation at room temperature, the reaction was terminated with 40 μL/well of 20 mM EDTA/1 mM ATP solution.
# 50 μL/well of the stopped reaction mix was then transferred to 384-well MultiScreenHTS-PH filter plate (Millipore) pre-added with 50 μL/well of 1% phosphoric acid. The plate was washed 4 times with 120 μL/well of 0.5% phosphoric acid via vacuum filtration. Finally, 10 μL/well of Optiphase™ SuperMix liquid scintillation cocktail (Perkin Elmer) was added. After minimum 1 hour of incubation, counting was performed in a Wallac MicroBeta TriLux scintillation counter using coincidence counting mode with crosstalk correction.
# [4] = system: DU145; experiment: Cell-based proliferation assay, DU145; details: Homo sapiens, DU-145; DU145 cells, 96 h treatment
# Description: (§1) Human cancer cell lines PC3 and DU145 (human prostate cancer cell lines), were obtained from ATCC. They were cultured in the media according to the ATCC work instructions. PC3 and DU145 cells were seeded at 1,000 cells per well in 96-well plates, respectively. The plates were incubated at 37° C., 5% CO2, for 24 h. Cells were treated with compounds at various concentrations for 96 h. Cell proliferation was then quantified using Celltiter96 Aqueous One Solution Cell Proliferation Assay from Promega (Madison Wis.). Dose response curves were plotted to determine IC50 values for the compounds using XL-fit (ID Business Solution, Emeryville, Calif.).
# [5] = system: PC3; experiment: Cell-based proliferation assay, PC3; details: Homo sapiens, PC-3; PC3 cells, 96 h treatment
# Description: as §1
Structure (SMILES),IC50 [2] [nM],IC50 [3] [nM],IC50 [4] [nM],IC50 [5] [nM],IC50 [1]
CO[C@H]1C[C@@H]2CC[C@@H](C)[C@@](O)(O2)C(=O)C(=O)N2CCCC[C@H]2C(=O)O[C@H]([C@H](C)C[C@@H]2CC[C@@H](OC(=O)C(C)(CO)CO)[C@H](OC)C2)CC(=O)[C@H](C)/C=C(\C)[C@@H](O)[C@@H](OC)C(=O)[C@H](C)C[C@H](C)/C=C/C=C/C=C/1C [CCI-779],,,,,low nanomolar range
Oc1cccc(-c2nc(N3CCOCC3)nc3c2ncn3Cc2ccccc2)c1 [Compound 2],< 1000,< 1000,1000 to 5000,,
COc1ccc(Cn2cnc3c(-c4cccc(O)c4)nc(N4CCOCC4)nc32)cc1 [Compound 8],< 1000,< 1000,1000 to 5000,,
C=CCCn1cnc2c(-c3cccc(O)c3)nc(N3CCOCC3)nc21 [Compound 22],< 1000,< 1000,≤ 1000,,
"Cc1cccc(-n2cnc3c(-c4cccc(O)c4)nc(N4CCOCC4)nc32)c1 [Compound 27, 3-(2-Morpholin-4-yl-9-(3-methylphenyl)-9H-purin-6-yl)-phenol]",< 1000,< 1000,,≤ 1000,
N#CCn1cnc2c(-c3cccc(O)c3)nc(N3CCOCC3)nc21 [Compound 35],< 1000,< 1000,1000 to 5000,,
CC(c1ccccc1)n1cnc2c(-c3cccc(O)c3)nc(N3CCOCC3)nc21 (stereo not shown) [Compound 36],< 1000,< 1000,1000 to 5000,,
Oc1cccc(-c2nc(N3CCOCC3)nc3c2ncn3CC2CC2)c1 [Compound 50],< 1000,< 1000,≤ 1000,,
c1cc(-c2nc(N3CCOCC3)nc3c2ncn3CC2CC2)c2cc[nH]c2c1 [Compound 51],< 1000,< 1000,1000 to 5000,,
Oc1cccc(-c2nc(N3CCOCC3)nc3c2ncn3C2CCCC2)c1 [Compound 54],< 1000,< 1000,≤ 1000,≤ 1000,
c1cc(-c2nc(N3CCOCC3)nc3c2ncn3C2CCCC2)c2cc[nH]c2c1 [Compound 63],< 1000,< 1000,1000 to 5000,,
CC(C)C(C)n1cnc2c(-c3cccc4[nH]ccc34)nc(N3CCOCC3)nc21 (stereo not shown) [Compound 101],< 1000,< 1000,,≤ 1000,
CCNc1nc2c(-c3cccc(O)c3)nc(N3CCOCC3)nc2n1C(C)CC (stereo not shown) [Compound 122],< 1000,< 1000,,,

# The next lines start with results.
IC50 [2] [nM],IC50 [3] [nM],IC50 [4] [nM],IC50 [5] [nM],Structure (SMILES),IC50 [1]
< 1000,< 1000,,,"CCC(C)n1c(NC(C)C)nc2c(-c3cccc(O)c3)nc(N3CCOCC3)nc21 (stereo not shown) [Compound 123, 3-(9-sec-Butyl-8-isopropylamino-2-morpholin-4-yl-9H-purin-6-yl)-phenol]",
< 1000,< 1000,,,"CCC(C)n1c(SC)nc2c(-c3cccc(O)c3)nc(N3CCOCC3)nc21 (stereo not shown) [Compound 124, 3-(9-sec-Butyl-8-methylsulfanyl-2-morpholin-4-yl-9H-purin-6-yl)-phenol]",
< 1000,< 1000,,,CCC(C)n1c(N2CCCC2)nc2c(-c3cccc(O)c3)nc(N3CCOCC3)nc21 (stereo not shown) [Compound 125],
< 1000,< 1000,,,CCC(C)n1c(-c2ccccc2)nc2c(-c3cccc(O)c3)nc(N3CCOCC3)nc21 (stereo not shown) [Compound 126],
< 1000,< 1000,,,CCC(C)n1c(NCCN(C)C)nc2c(-c3cccc(O)c3)nc(N3CCOCC3)nc21 (stereo not shown) [Compound 127],
< 1000,< 1000,,,CCC(C)n1c(NCCOC)nc2c(-c3cccc(O)c3)nc(N3CCOCC3)nc21 (stereo not shown) [Compound 128],
< 1000,< 1000,,,CCC(C)n1c(Cl)nc2c(-c3cccc(O)c3)nc(N3CCOCC3)nc21 (stereo not shown) [Compound 129],
< 1000,< 1000,,,"CCC(C)n1c(S(C)(=O)=O)nc2c(-c3cccc(O)c3)nc(N3CCOCC3)nc21 (stereo not shown) [Compound 130, 3-(9-sec-Butyl-8-methanesulfonyl-2-morpholin-4-yl-9H-purin-6-yl)-phenol]",
< 1000,< 1000,,,Nc1ccc(-c2nc(N3CCOCC3)nc3c2ncn3Cc2cccc([N+](=O)[O-])c2)cn1 [Compound 131],
< 1000,< 1000,,,"CCC(C)n1cnc2c(-c3ccc(N)nc3)nc(N3CCOCC3)nc21 (stereo not shown) [Compound 132, 5-(9-sec-Butyl-2-morpholin-4-yl-9H-purin-6-yl)-pyridin-2-ylamine]",
< 1000,< 1000,,,Nc1ccc(-c2nc(N3CCOCC3)nc3c2ncn3C2CCCC2)cn1 [Compound 133],
< 1000,< 1000,,,"COCC(C)n1cnc2c(-c3ccc(N)nc3)nc(N3CCOCC3)nc21 (stereo not shown) [Compound 134, 5-[9-(2-Methoxy-1-methyl-ethyl)-2-morpholin-4-yl-9H-purin-6-yl]-pyrirlin-2-ylamino]",
< 1000,< 1000,,,CC(C)n1cnc2c(-c3ccc(N)nc3)nc(N3CCOCC3)nc21 [Compound 135],
< 1000,< 1000,,,CC(C)C(C)n1cnc2c(-c3ccc(N)nc3)nc(N3CCOCC3)nc21 (stereo not shown) [Compound 136],
1000 to 5000,< 1000,,,CCC(C#N)n1cnc2c(-c3ccc(N)nc3)nc(N3CCOCC3)nc21 (stereo not shown) [Compound 137],
< 1000,< 1000,,,CCC(CC)n1cnc2c(-c3ccc(N)nc3)nc(N3CCOCC3)nc21 [Compound 138],
> 5000,> 5000,,,N#CCn1cnc2c(-c3ccc(O)nc3)nc(N3CCOCC3)nc21 [Compound 139],
1000 to 5000,> 5000,,,COCCn1cnc2c(-c3cncc(F)c3)nc(N3CCOCC3)nc21 [Compound 140],
